Experimental data reported in PubChem BioAssay AID256 (DTP/NCI, 2004).
“And” between values parts separate entries of the source, which are not always exact repeats. Equal entries are not always repeated. Inconclusive results and toxic doses are left out. Rule for the calls: active = survival T/C of 150% or more; inactive = T/C below 125% in these data.

System: CD2F1 mice, L1210 leukemia ip, survival T/C
Assay: NCI In Vivo Anticancer Drug Screen. Data for tumor model L1210 Leukemia (intraperitoneal) in CD2F1 (CDF1) mice
Settings: higher = longer survival
Summary of the method: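 Mice carrying a transplanted tumor received test compound or vehicle alone. The value is the measurement in the treated group divided by that in the vehicle-treated control group.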

Measured: T/C

COc1cc([C@@H]2c3cc4c(cc3[C@@H](OC3OC5COC(C)OC5C(O)C3O)[C@H]3COC(=O)[C@H]23)OCO4)cc(OC)c1O (stereo partly specified)
active: endpoint: mean survival time, dose: 0.5 mg/kg/injection, schedule: Q03HX024 (ip), vehicle: saline 165 % of control | endpoint: mean survival time, dose: 1.0 mg/kg/injection, schedule: Q03HX024 (ip), vehicle: saline 360 % of control | endpoint: mean survival time, dose: 2.0 mg/kg/injection, schedule: Q01DX009 (ip), vehicle: saline 151 % of control | endpoint: mean survival time, dose: 4.0 mg/kg/injection, schedule: Q01DX009 (ip), vehicle: saline 246 % of control | endpoint: mean survival time, dose: 8.0 mg/kg/injection, schedule: Q04DX003 (ip), vehicle: saline 181 % of control | endpoint: mean survival time, dose: 16.0 mg/kg/injection, schedule: Q04DX003 (ip), vehicle: saline 289 % of control | endpoint: mean survival time, dose: 32.0 mg/kg/injection, schedule: Q04DX003 (ip), vehicle: saline 542 % of control | endpoint: median survival time, dose: 1.0 mg/kg/injection, schedule: Q03HX008 (ip), vehicle: other 162 % of control | endpoint: median survival time, dose: 1.0 mg/kg/injection, schedule: Q03HX016 (ip), vehicle: other 175 % of control | endpoint: median survival time, dose: 1.0 mg/kg/injection, schedule: Q03HX024 (ip), vehicle: other 218 % of control | endpoint: median survival time, dose: 2.0 mg/kg/injection, schedule: Q01DX009 (ip), vehicle: other 175 % of control | endpoint: median survival time, dose: 2.0 mg/kg/injection, schedule: Q01DX009 (ip), vehicle: saline 152 % of control | endpoint: median survival time, dose: 2.0 mg/kg/injection, schedule: Q01DX009 (sc), vehicle: other 150 % of control | endpoint: median survival time, dose: 2.0 mg/kg/injection, schedule: Q03HX008 (ip), vehicle: other 175 % of control | endpoint: median survival time, dose: 2.0 mg/kg/injection, schedule: Q03HX016 (ip), vehicle: other 212 % of control | endpoint: median survival time, dose: 2.0 mg/kg/injection, schedule: Q03HX024 (ip), vehicle: other 206 % of control | endpoint: median survival time, dose: 4.0 mg/kg/injection, schedule: Q01DX009 (ip), vehicle: other 218 % of control | endpoint: median survival time, dose: 4.0 mg/kg/injection, schedule: Q01DX009 (ip), vehicle: saline 195 % of control | endpoint: median survival time, dose: 4.0 mg/kg/injection, schedule: Q01DX009 (sc), vehicle: other 168 % of control | endpoint: median survival time, dose: 4.0 mg/kg/injection, schedule: Q03HX008 (ip), vehicle: other 181 % of control | endpoint: median survival time, dose: 4.0 mg/kg/injection, schedule: Q03HX016 (ip), vehicle: other 187 % of control | endpoint: median survival time, dose: 8.0 mg/kg/injection, schedule: Q01DX001 (ip), vehicle: other 162 % of control | endpoint: median survival time, dose: 8.0 mg/kg/injection, schedule: Q01DX009 (ip), vehicle: saline 220 % of control | endpoint: median survival time, dose: 8.0 mg/kg/injection, schedule: Q04DX003 (ip), vehicle: other 193 % of control | endpoint: median survival time, dose: 8.0 mg/kg/injection, schedule: Q08DX002 (ip), vehicle: other 168 % of control | endpoint: median survival time, dose: 16.0 mg/kg/injection, schedule: Q01DX001 (ip), vehicle: other 162 % of control | endpoint: median survival time, dose: 16.0 mg/kg/injection, schedule: Q04DX003 (ip), vehicle: other 212 % of control | endpoint: median survival time, dose: 16.0 mg/kg/injection, schedule: Q08DX002 (ip), vehicle: other 200 % of control | endpoint: median survival time, dose: 32.0 mg/kg/injection, schedule: Q01DX001 (ip), vehicle: other 162 % of control | endpoint: median survival time, dose: 32.0 mg/kg/injection, schedule: Q01DX001 (sc), vehicle: other 150 % of control | endpoint: median survival time, dose: 32.0 mg/kg/injection, schedule: Q04DX003 (ip), vehicle: other 206 % of control | endpoint: median survival time, dose: 32.0 mg/kg/injection, schedule: Q08DX002 (ip), vehicle: other 200 % of control | endpoint: median survival time, dose: 64.0 mg/kg/injection, schedule: Q01DX001 (ip), vehicle: other 218 % of control | endpoint: median survival time, dose: 64.0 mg/kg/injection, schedule: Q01DX001 (sc), vehicle: other 187 % of control | endpoint: median survival time, dose: 64.0 mg/kg/injection, schedule: Q01DX009 (oral), vehicle: other 162 % of control | endpoint: median survival time, dose: 64.0 mg/kg/injection, schedule: Q04DX003 (ip), vehicle: other 156 % of control | endpoint: median survival time, dose: 64.0 mg/kg/injection, schedule: Q08DX002 (ip), vehicle: other 212 % of control | endpoint: median survival time, dose: 128.0 mg/kg/injection, schedule: Q03HX016 (oral), vehicle: Klucel (hydroxypropylcellulose) (HPC) 150 % of control | endpoint: median survival time, dose: 128.0 mg/kg/injection, schedule: Q08DX002 (ip), vehicle: other 175 % of control | endpoint: median survival time, dose: 512.0 mg/kg/injection, schedule: Q01DX001 (oral), vehicle: other 150 % of control | endpoint: median survival time, dose: 1024.0 mg/kg/injection, schedule: Q01DX001 (oral), vehicle: other 150 % of control
inactive: endpoint: mean survival time, dose: 2.0 mg/kg/injection, schedule: Q03HX024 (ip), vehicle: saline 124 % of control | endpoint: mean survival time, dose: 8.0 mg/kg/injection, schedule: Q01DX009 (ip), vehicle: saline 111 % of control | endpoint: mean survival time, dose: 16.0 mg/kg/injection, schedule: Q01DX009 (ip), vehicle: saline 87 % of control | endpoint: median survival time, dose: 4.0 mg/kg/injection, schedule: Q01DX009 (oral), vehicle: Klucel (hydroxypropylcellulose) (HPC) 105 % of control | endpoint: median survival time, dose: 4.0 mg/kg/injection, schedule: Q03HX008 (oral), vehicle: Klucel (hydroxypropylcellulose) (HPC) 111 % of control | endpoint: median survival time, dose: 4.0 mg/kg/injection, schedule: Q03HX016 (oral), vehicle: Klucel (hydroxypropylcellulose) (HPC) 100 % of control | endpoint: median survival time, dose: 4.0 mg/kg/injection, schedule: Q03HX024 (ip), vehicle: other 118 % of control | endpoint: median survival time, dose: 4.0 mg/kg/injection, schedule: Q03HX024 (oral), vehicle: Klucel (hydroxypropylcellulose) (HPC) 88 % of control | endpoint: median survival time, dose: 8.0 mg/kg/injection, schedule: Q01DX001 (sc), vehicle: other 112 % of control | endpoint: median survival time, dose: 8.0 mg/kg/injection, schedule: Q01DX009 (oral), vehicle: Klucel (hydroxypropylcellulose) (HPC) 116 % of control | endpoint: median survival time, dose: 8.0 mg/kg/injection, schedule: Q01DX009 (sc), vehicle: other 118 % of control | endpoint: median survival time, dose: 8.0 mg/kg/injection, schedule: Q03HX008 (ip), vehicle: other 87 % of control | endpoint: median survival time, dose: 8.0 mg/kg/injection, schedule: Q03HX008 (oral), vehicle: Klucel (hydroxypropylcellulose) (HPC) 122 % of control | endpoint: median survival time, dose: 8.0 mg/kg/injection, schedule: Q03HX016 (oral), vehicle: Klucel (hydroxypropylcellulose) (HPC) 100 % of control | endpoint: median survival time, dose: 8.0 mg/kg/injection, schedule: Q03HX024 (ip), vehicle: other 112 % of control | endpoint: median survival time, dose: 8.0 mg/kg/injection, schedule: Q03HX024 (oral), vehicle: Klucel (hydroxypropylcellulose) (HPC) 88 % of control | endpoint: median survival time, dose: 16.0 mg/kg/injection, schedule: Q01DX009 (ip), vehicle: other 100 % of control | endpoint: median survival time, dose: 16.0 mg/kg/injection, schedule: Q01DX009 (oral), vehicle: Klucel (hydroxypropylcellulose) (HPC) 122 % of control | endpoint: median survival time, dose: 16.0 mg/kg/injection, schedule: Q01DX009 (sc), vehicle: other 93 % of control | endpoint: median survival time, dose: 16.0 mg/kg/injection, schedule: Q03HX008 (oral), vehicle: Klucel (hydroxypropylcellulose) (HPC) 111 % of control | endpoint: median survival time, dose: 16.0 mg/kg/injection, schedule: Q03HX016 (oral), vehicle: Klucel (hydroxypropylcellulose) (HPC) 111 % of control | endpoint: median survival time, dose: 16.0 mg/kg/injection, schedule: Q03HX024 (oral), vehicle: Klucel (hydroxypropylcellulose) (HPC) 94 % of control | endpoint: median survival time, dose: 32.0 mg/kg/injection, schedule: Q01DX001 (oral), vehicle: Klucel (hydroxypropylcellulose) (HPC) 105 % of control | endpoint: median survival time, dose: 32.0 mg/kg/injection, schedule: Q01DX009 (ip), vehicle: other 87 % of control | endpoint: median survival time, dose: 32.0 mg/kg/injection, schedule: Q01DX009 (ip), vehicle: saline 110 % of control | endpoint: median survival time, dose: 32.0 mg/kg/injection, schedule: Q01DX009 (oral), vehicle: Klucel (hydroxypropylcellulose) (HPC) 122 % of control | endpoint: median survival time, dose: 32.0 mg/kg/injection, schedule: Q01DX009 (sc), vehicle: other 87 % of control | endpoint: median survival time, dose: 32.0 mg/kg/injection, schedule: Q03HX008 (oral), vehicle: Klucel (hydroxypropylcellulose) (HPC) 122 % of control | endpoint: median survival time, dose: 32.0 mg/kg/injection, schedule: Q03HX016 (oral), vehicle: Klucel (hydroxypropylcellulose) (HPC) 116 % of control | endpoint: median survival time, dose: 32.0 mg/kg/injection, schedule: Q04DX003 (oral), vehicle: Klucel (hydroxypropylcellulose) (HPC) 105 % of control | endpoint: median survival time, dose: 32.0 mg/kg/injection, schedule: Q08DX002 (oral), vehicle: Klucel (hydroxypropylcellulose) (HPC) 111 % of control | endpoint: median survival time, dose: 64.0 mg/kg/injection, schedule: Q01DX001 (oral), vehicle: Klucel (hydroxypropylcellulose) (HPC) 111 % of control | endpoint: median survival time, dose: 64.0 mg/kg/injection, schedule: Q01DX009 (ip), vehicle: saline 102 % of control | endpoint: median survival time, dose: 64.0 mg/kg/injection, schedule: Q03HX008 (oral), vehicle: Klucel (hydroxypropylcellulose) (HPC) 116 % of control | endpoint: median survival time, dose: 64.0 mg/kg/injection, schedule: Q03HX024 (oral), vehicle: Klucel (hydroxypropylcellulose) (HPC) 94 % of control | endpoint: median survival time, dose: 64.0 mg/kg/injection, schedule: Q04DX003 (oral), vehicle: Klucel (hydroxypropylcellulose) (HPC) 122 % of control | endpoint: median survival time, dose: 64.0 mg/kg/injection, schedule: Q08DX002 (oral), vehicle: Klucel (hydroxypropylcellulose) (HPC) 111 % of control | endpoint: median survival time, dose: 128.0 mg/kg/injection, schedule: Q01DX001 (ip), vehicle: other 112 % of control | endpoint: median survival time, dose: 128.0 mg/kg/injection, schedule: Q01DX001 (oral), vehicle: Klucel (hydroxypropylcellulose) (HPC) 111 % of control | endpoint: median survival time, dose: 128.0 mg/kg/injection, schedule: Q01DX001 (sc), vehicle: other 87 % of control | endpoint: median survival time, dose: 128.0 mg/kg/injection, schedule: Q03HX008 (oral), vehicle: Klucel (hydroxypropylcellulose) (HPC) 122 % of control | endpoint: median survival time, dose: 128.0 mg/kg/injection, schedule: Q04DX003 (ip), vehicle: other 118 % of control | endpoint: median survival time, dose: 128.0 mg/kg/injection, schedule: Q04DX003 (oral), vehicle: Klucel (hydroxypropylcellulose) (HPC) 116 % of control | endpoint: median survival time, dose: 128.0 mg/kg/injection, schedule: Q08DX002 (oral), vehicle: Klucel (hydroxypropylcellulose) (HPC) 111 % of control | endpoint: median survival time, dose: 256.0 mg/kg/injection, schedule: Q01DX001 (oral), vehicle: Klucel (hydroxypropylcellulose) (HPC) 122 % of control | endpoint: median survival time, dose: 256.0 mg/kg/injection, schedule: Q01DX001 (oral), vehicle: other 118 % of control and 112 % of control | endpoint: median survival time, dose: 256.0 mg/kg/injection, schedule: Q01DX001 (sc), vehicle: other 87 % of control | endpoint: median survival time, dose: 256.0 mg/kg/injection, schedule: Q04DX003 (oral), vehicle: Klucel (hydroxypropylcellulose) (HPC) 122 % of control | endpoint: median survival time, dose: 256.0 mg/kg/injection, schedule: Q08DX002 (oral), vehicle: Klucel (hydroxypropylcellulose) (HPC) 111 % of control | endpoint: median survival time, dose: 512.0 mg/kg/injection, schedule: Q01DX001 (oral), vehicle: Klucel (hydroxypropylcellulose) (HPC) 122 % of control | endpoint: median survival time, dose: 512.0 mg/kg/injection, schedule: Q01DX009 (oral), vehicle: other 100 % of control and 112 % of control | endpoint: median survival time, dose: 512.0 mg/kg/injection, schedule: Q08DX002 (oral), vehicle: Klucel (hydroxypropylcellulose) (HPC) 105 % of control | endpoint: median survival time, dose: 1024.0 mg/kg/injection, schedule: Q01DX001 (oral), vehicle: Klucel (hydroxypropylcellulose) (HPC) 122 % of control | endpoint: median survival time, dose: 1024.0 mg/kg/injection, schedule: Q01DX009 (oral), vehicle: other 87 % of control and 100 % of control | endpoint: median survival time, dose: 1024.0 mg/kg/injection, schedule: Q08DX002 (oral), vehicle: Klucel (hydroxypropylcellulose) (HPC) 111 % of control
